The record followed here is US20240309015A1, “Methods for the Treatment of Fibrotic Disease” (SHY Therapeutics, LLC, priority 2021, published 2024).

Each structure is given as a SMILES string.

One experiment deals with JNK. Nature of the experiment: JNK Activation Assay in PANC-1. Type of experiment: cell-based, human. Also on record: key: Y = yes; N = No. To be noted: at 10 μM. As to the method:
Cell lines: Human tumor-derived pancreatic cancer cell line Panc-1 and mouse muscle myoblast C2C12 were purchased from American Type Culture Collection and grown in complete DMEM-High Glucose, supplemented with penicillin (100 U/mL), streptomycin (100 μg/mL), and 10% heat-inactivated FBS at 37° C. in a humidified incubator with 5% CO2.
(§1) Method: Cells were plated at 350000 cells/well density in a 12-well plate, allowed 3 hours to adhere to the plate, then starved in the appropriate medium in the presence of 0.5% FBS overnight. The small molecules to be tested were added to the cells in the final concentration of 10 μM in the presence of 0.3% DMSO for 3 hours incubation at 37° C. For IC50 value determination, serial dilutions of compounds were added to cells under the same conditions. […] Protein concentration was assessed by BCA protein assay (Thermo Scientific). Phosphorylation level of JNK was determined by western blot.
Western blot protocol: Equal amounts of protein (15-50 μg) were separated by SDS-PAGE and transferred to nitrocellulose membranes (Invitrogen by Thermo Fisher Scientific). […] Membranes were blocked with 10% milk and phosphorylation levels of Smad2, Smad3, JNK and p38 were assessed by incubating overnight at 4° C. with the following antibody: Phospho-SAPK/JNK (Thr183/Tyr185), from Cell Signaling Technology. […]

Another experiment deals with MAPK p38. As to the kind of experiment: MAPK p38 Activation Assay in PANC-1. Also on record: key: Y = yes; N = No. Type of experiment: cell-based, human. To be noted: at 10 μM. How it is done: Cell lines: Human tumor-derived pancreatic cancer cell line Panc-1 and mouse muscle myoblast C2C12 were purchased from American Type Culture Collection and grown in complete DMEM-High Glucose, supplemented with penicillin (100 U/mL), streptomycin (100 μg/mL), and 10% heat-inactivated FBS at 37° C. in a humidified incubator with 5% C02.
as §1, with “MAPK p38” for “JNK”
Western blot protocol: Equal amounts of protein (15-50 μg) were separated by SDS-PAGE and transferred to nitrocellulose membranes (Invitrogen by Thermo Fisher Scientific). […] Membranes were blocked with 10% milk and phosphorylation levels of Smad2/Smad3 were assessed by incubating overnight at 4° C. with the following antibody: Phospho-p38 MAPK (Thr180/Tyr182), from Cell Signaling Technology. […]

Another experiment relates to KRas G12C mutant. As to the kind of experiment: Ras GTP Binding Domain Inhibition Assay, KRas G12C mutant. To be noted: at 20 μM. In outline: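 Read-out is fluorescence of Cy3- or Cy5-GTP (100 nM, 45 min, room temperature) still bound after three washes. Beforehand, His-tagged protein on nickel wells was exposed to compound (20 μM, or a dilution series for IC50) for 3 h, with or without Sos in the last hour.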

`CO[C@H]1CC[C@@H](Nc2nc(-c3nccn3C)nc3sc(-c4ccn(C)n4)c(-c4ccccc4)c23)C1` (racemic) [Compound 5, rac-N-((1R,3S)-3-Methoxycyclopentyl)-2-(1-methyl-1H-imidazol-2-yl)-6-(1-methyl-1H-pyrazol-3-yl)-5-phenylthieno[2,3-d]pyrimidin-4-amine]: in the experiment with JNK, the “Activation of JNK in PANC-1” value is given as “Y”. Moreover, the “Activation of MAPK p38 in PANC-1” value in the experiment with MAPK p38 is “Y”. The “KRas G12C mutant + SOS: % inh.” value with KRas G12C mutant (with SOS) was “D (D = 76-100% inhibition)”. Further, the “KRas G12C mutant: % inh.” value in the experiment on KRas G12C mutant (without SOS) is listed as “B (B = 26-45% inhibition)”.
